Measurements taken from US20080146579A1, “TREATMENT OF PATIENTS WITH CHRONIC PULMONARY DISEASES AND NUTRITIONAL COMPOSITIONS THEREFORE” (N.V. Nutricia, priority 2006, published 2008).

Columns and labels:
[1] = daily dose of 200 mg; cited from earlier work
[2] = tested on: pulmonary artery pressure; conditions: in vivo studies; cited from earlier work
liver cells = assay: in vitro experiments in liver cells, nucleotide status; assay type: cell-based; conditions: incubation with increasing concentrations

COC1=C(OC)C(=O)C(C/C=C(\C)CC/C=C(\C)CC/C=C(\C)CC/C=C(\C)CC/C=C(\C)CC/C=C(\C)CC/C=C(\C)CC/C=C(\C)CC/C=C(\C)CCC=C(C)C)=C(C)C1=O [CoQ10, Coenzyme Q10]
increase in plasma CoQ10 levels [1]: more than six-fold increase

CC(=O)N[C@@H](CS)C(=O)O [NAC, N-acetyl cysteine]
endotoxin-induced rise in pulmonary artery pressure [2]: attenuates

Nc1nc2ncc(CNc3ccc(C(=O)N[C@@H](CCC(=O)O)C(=O)O)cc3)nc2c(=O)[nH]1 [folic acid]
nucleotide status (liver cells): able to restore the nucleotide status
